“Also recorded” adds a separate entry of the source.
System: ICR female mice
Experiment: Mouse batch farrowing with FTAI model: embryo implantation number, embryo spacing, number born alive
Format: in vivo
Conditions: for embryo spacing upon embryo implantation: compared with batch farrowing model group
Description: 6-8-week-old ICR female mice acclimatized to the laboratory mouse house environment and in a good condition were selected and divided into a batch farrowing with FTAI model group, a batch farrowing with FTAI+low-dose model group, and a batch farrowing with FTAI+high-dose model group, and 10IU PMSG was injected at 17:00 pm. At 6-8 hours after a single injection of PMSG to the batch farrowing with FTAI+low-dose model group and the batch farrowing with FTAI+high-dose model group, respectively, the groups were supplemented with a low dose of 1-[bis(4-cyanophenyl)methyl]-1,2,4-triazole (10 μg/kg·BW) and a high dose of 1-[bis(4-cyanophenyl)methyl]-1,2,4-triazole (50 μg/kg·BW), respectively, and at 46-48 hours after the injection of PMSG, the groups were then injected with prepared 10IU GnRH and then put into a breeding male mouse cage. At 7:00-9:00 the next morning, vaginal plugs were examined, and this day was recorded as day 1 (D1) of pregnancy. In the afternoon of day 5 (D5) of pregnancy, 0.4 ml of 1% Chicago blue-normal saline solution was injected into model mice at the caudal vein, and after 3 minutes of systemic circulation, the mice were sacrificed by means of cervical dislocation, the abdominal cavity was immediately cut open, and the abdominal aorta was cut for bleeding. Then, uteri and ovaries were removed with surgical ophthalmic scissors, immersed in physiological saline for washing, and then put into a 4% paraformaldehyde fixation solution for 5 minutes of morphological fixation. Blue dots on the uterus were recorded as embryo implantation sites, the number of implantation sites was counted, and patterns of embryo spacing in different groups were drawn.
For some of the mice treated above, no intermediate test was done, and after the mice gave birth, the number born alive in each group was counted.

[1] = low dose 10 μg/kg·BW, compared with batch farrowing with FTAI model group

N#Cc1ccc(C(c2ccc(C#N)cc2)n2cncn2)cc1 [1-[bis(4-cyanophenyl)methyl]-1,2,4-triazole]
embryo spacing upon embryo implantation (high dose 50 μg/kg·BW): no effect on increasing the embryo spacing; also recorded: could not alleviate the overcrowding of embryos | number born alive (high dose 50 μg/kg·BW, compared with batch farrowing with FTAI model group): reduced number born alive; also recorded: decreased number born alive | embryo spacing upon embryo implantation (low dose 10 μg/kg·BW): increased embryo spacing; also recorded: increase the spacing between embryos | embryo implantation number [1]: no significant effect; also recorded: no significant difference | number born alive [1]: significantly increase the number born alive

Source: US12678488B2, “Batch management method for improving farrowing rate or number of piglets born alive in swine” (priority 2024, dated 2026)
